Key:
Conditions in all cases: Compound concentration 1000.0 nM
[1] = target: Serine/threonine-protein kinase PLK3 (Homo sapiens) (UniProt Q9H4B4)
[2] = target: Fibroblast growth factor receptor 2 (Homo sapiens) (UniProt P21802)
[3] = target: Tyrosine-protein kinase TXK (Homo sapiens) (UniProt P42681)
[4] = target: Dual specificity mitogen-activated protein kinase kinase 1 (Homo sapiens) (UniProt Q02750)
[5] = target: Serine/threonine-protein kinase SIK1 (Homo sapiens) (UniProt P57059)
[6] = target: Serine/threonine-protein kinase/endoribonuclease IRE1 (Homo sapiens) (UniProt O75460)
[7] = target: cGMP-dependent protein kinase 1 (Homo sapiens) (UniProt Q13976)
[8] = target: Protein kinase C iota type (Homo sapiens) (UniProt P41743)
[9] = target: Mitogen-activated protein kinase 6 (Homo sapiens) (UniProt Q16659)
Mitogen-activated protein kinase 6 (Homo sapiens), sequence (Q16659 whole entry): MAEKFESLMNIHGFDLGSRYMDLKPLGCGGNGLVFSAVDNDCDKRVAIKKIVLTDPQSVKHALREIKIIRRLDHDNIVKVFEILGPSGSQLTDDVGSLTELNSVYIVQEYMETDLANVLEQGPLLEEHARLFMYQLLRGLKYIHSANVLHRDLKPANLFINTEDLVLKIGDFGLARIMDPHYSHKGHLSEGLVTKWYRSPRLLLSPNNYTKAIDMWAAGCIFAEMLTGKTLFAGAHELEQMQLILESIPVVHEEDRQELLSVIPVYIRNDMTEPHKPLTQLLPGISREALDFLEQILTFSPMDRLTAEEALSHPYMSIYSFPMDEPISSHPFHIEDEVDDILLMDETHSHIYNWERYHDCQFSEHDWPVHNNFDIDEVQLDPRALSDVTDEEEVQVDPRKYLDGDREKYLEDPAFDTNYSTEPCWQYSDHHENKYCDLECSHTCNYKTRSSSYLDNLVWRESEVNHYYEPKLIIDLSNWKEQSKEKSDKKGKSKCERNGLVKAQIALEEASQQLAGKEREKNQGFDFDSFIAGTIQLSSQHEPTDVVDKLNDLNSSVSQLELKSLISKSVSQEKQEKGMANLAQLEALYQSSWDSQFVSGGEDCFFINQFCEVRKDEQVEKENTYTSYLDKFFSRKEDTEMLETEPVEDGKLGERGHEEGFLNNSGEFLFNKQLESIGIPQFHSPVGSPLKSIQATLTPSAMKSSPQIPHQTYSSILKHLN

[10] = test system: Epidermal growth factor receptor (Homo sapiens), P00533 [T790M]
[11] = target: Phosphatidylinositol 4,5-bisphosphate 3-kinase catalytic subunit alpha isoform (Homo sapiens) (UniProt P42336)
[12] = test system: Tyrosine-protein kinase ABL1 (Homo sapiens), P00519 [M351T]
[13] = target: Protein kinase C delta type (Homo sapiens) (UniProt Q05655)
Protein kinase C delta type (Homo sapiens), sequence (Q05655 whole entry, looked up): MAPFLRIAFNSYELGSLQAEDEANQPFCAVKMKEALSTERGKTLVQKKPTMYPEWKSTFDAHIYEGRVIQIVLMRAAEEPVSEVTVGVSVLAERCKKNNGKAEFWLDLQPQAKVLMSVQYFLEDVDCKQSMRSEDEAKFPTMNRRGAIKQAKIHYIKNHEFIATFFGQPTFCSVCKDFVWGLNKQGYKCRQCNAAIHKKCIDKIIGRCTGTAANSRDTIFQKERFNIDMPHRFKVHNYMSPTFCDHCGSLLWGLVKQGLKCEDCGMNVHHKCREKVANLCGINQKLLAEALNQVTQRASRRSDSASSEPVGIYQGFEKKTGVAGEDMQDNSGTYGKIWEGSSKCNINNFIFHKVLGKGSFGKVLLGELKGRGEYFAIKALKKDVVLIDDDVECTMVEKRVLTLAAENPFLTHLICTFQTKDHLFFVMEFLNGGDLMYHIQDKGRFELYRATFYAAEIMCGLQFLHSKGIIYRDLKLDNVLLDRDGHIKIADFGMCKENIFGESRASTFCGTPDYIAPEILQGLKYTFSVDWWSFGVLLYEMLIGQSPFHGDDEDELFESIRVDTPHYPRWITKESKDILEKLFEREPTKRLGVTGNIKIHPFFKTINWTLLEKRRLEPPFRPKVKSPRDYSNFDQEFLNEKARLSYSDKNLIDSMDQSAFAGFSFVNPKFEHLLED

[14] = target: Serine/threonine-protein kinase STK11 (Homo sapiens) (UniProt Q15831)
[15] = test system: Epidermal growth factor receptor (Homo sapiens), P00533 [L861Q]
[16] = target: Phosphatidylinositol 4-kinase beta (Homo sapiens) (UniProt Q9UBF8)
[17] = target: Phosphatidylinositol 3-kinase catalytic subunit type 3 (Homo sapiens) (UniProt Q8NEB9)
[18] = test system: Phosphatidylinositol 4,5-bisphosphate 3-kinase catalytic subunit alpha isoform (Homo sapiens), P42336 [M1043I]
[19] = target: Mitogen-activated protein kinase kinase kinase 15 (Homo sapiens) (UniProt Q6ZN16)
[20] = target: Serine/threonine-protein kinase MAK (Homo sapiens) (UniProt P20794)
[21] = target: Cyclin-dependent kinase 18 (Homo sapiens) (UniProt Q07002)
[22] = target: NT-3 growth factor receptor (Homo sapiens) (UniProt Q16288)
[23] = target: Aurora kinase C (Homo sapiens) (UniProt Q9UQB9)
Aurora kinase C (Homo sapiens), sequence (Q9UQB9 whole entry): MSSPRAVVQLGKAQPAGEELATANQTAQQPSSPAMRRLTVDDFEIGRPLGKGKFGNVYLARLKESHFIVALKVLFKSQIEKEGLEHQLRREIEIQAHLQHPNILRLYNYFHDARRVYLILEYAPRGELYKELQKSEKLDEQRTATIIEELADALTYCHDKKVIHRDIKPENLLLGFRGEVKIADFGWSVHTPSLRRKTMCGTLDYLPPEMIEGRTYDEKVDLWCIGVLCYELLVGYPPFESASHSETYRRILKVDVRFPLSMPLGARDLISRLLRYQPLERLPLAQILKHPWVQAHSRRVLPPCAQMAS

[24] = target: Ribosomal protein S6 kinase alpha-6 (Homo sapiens) (UniProt Q9UK32)
[25] = target: Homeodomain-interacting protein kinase 2 (Homo sapiens) (UniProt Q9H2X6)
[26] = target: Testis-specific serine/threonine-protein kinase 1 (Homo sapiens) (UniProt Q9BXA7)
[27] = target: Serine/threonine-protein kinase 32A (Homo sapiens) (UniProt Q8WU08)
[28] = target: Mitogen-activated protein kinase 9 (Homo sapiens) (UniProt P45984)
[29] = target: Death-associated protein kinase 2 (Homo sapiens) (UniProt Q9UIK4)
[30] = target: Bone morphogenetic protein receptor type-1A (Homo sapiens) (UniProt P36894)
[31] = target: Tyrosine-protein kinase Lck (Homo sapiens) (UniProt P06239)
[32] = target: Insulin-like growth factor 1 receptor (Homo sapiens) (UniProt P08069)
Insulin-like growth factor 1 receptor (Homo sapiens), sequence (P08069 31-736 limits assumed): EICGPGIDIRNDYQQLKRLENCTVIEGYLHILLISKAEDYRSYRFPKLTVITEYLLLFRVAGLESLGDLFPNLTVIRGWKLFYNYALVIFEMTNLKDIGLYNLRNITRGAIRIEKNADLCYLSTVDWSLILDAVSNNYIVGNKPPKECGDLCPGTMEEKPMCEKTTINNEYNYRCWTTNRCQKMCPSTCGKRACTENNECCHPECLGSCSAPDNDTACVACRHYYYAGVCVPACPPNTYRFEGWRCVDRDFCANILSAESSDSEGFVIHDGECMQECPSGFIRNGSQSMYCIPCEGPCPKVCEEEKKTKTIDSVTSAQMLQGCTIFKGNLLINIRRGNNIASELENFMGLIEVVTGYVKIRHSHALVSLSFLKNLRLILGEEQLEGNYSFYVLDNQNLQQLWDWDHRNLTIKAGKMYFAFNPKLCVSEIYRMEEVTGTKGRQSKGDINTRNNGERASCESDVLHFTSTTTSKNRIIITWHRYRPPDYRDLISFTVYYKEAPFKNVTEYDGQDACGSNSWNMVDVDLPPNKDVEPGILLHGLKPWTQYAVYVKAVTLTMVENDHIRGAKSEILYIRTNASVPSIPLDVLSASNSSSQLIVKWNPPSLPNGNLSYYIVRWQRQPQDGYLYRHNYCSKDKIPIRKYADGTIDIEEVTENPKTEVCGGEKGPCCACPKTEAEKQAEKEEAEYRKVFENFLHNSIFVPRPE
Insulin-like growth factor 1 receptor (Homo sapiens), sequence (P08069 741-1367 limits assumed): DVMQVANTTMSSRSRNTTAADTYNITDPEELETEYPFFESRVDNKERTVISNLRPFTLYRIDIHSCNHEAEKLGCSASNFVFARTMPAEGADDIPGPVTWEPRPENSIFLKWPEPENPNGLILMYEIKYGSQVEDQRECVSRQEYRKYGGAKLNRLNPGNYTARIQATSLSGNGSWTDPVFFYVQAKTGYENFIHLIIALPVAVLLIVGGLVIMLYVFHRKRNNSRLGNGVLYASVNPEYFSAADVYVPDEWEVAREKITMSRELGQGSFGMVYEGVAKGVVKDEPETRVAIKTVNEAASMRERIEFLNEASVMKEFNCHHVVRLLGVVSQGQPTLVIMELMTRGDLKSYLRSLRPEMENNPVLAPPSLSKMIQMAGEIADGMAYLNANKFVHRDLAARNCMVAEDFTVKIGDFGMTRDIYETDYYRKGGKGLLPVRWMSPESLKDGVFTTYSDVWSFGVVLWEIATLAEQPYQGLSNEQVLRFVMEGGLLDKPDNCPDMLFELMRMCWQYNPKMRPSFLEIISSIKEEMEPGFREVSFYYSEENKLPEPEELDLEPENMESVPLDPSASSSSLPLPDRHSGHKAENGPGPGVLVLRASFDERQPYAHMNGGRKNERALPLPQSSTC

[33] = target: Bone morphogenetic protein receptor type-1B (Homo sapiens) (UniProt O00238)
[34] = target: Death-associated protein kinase 1 (Homo sapiens) (UniProt P53355)
[35] = target: Eukaryotic translation initiation factor 2-alpha kinase 1 (Homo sapiens) (UniProt Q9BQI3)
Eukaryotic translation initiation factor 2-alpha kinase 1 (Homo sapiens), sequence (Q9BQI3 whole entry): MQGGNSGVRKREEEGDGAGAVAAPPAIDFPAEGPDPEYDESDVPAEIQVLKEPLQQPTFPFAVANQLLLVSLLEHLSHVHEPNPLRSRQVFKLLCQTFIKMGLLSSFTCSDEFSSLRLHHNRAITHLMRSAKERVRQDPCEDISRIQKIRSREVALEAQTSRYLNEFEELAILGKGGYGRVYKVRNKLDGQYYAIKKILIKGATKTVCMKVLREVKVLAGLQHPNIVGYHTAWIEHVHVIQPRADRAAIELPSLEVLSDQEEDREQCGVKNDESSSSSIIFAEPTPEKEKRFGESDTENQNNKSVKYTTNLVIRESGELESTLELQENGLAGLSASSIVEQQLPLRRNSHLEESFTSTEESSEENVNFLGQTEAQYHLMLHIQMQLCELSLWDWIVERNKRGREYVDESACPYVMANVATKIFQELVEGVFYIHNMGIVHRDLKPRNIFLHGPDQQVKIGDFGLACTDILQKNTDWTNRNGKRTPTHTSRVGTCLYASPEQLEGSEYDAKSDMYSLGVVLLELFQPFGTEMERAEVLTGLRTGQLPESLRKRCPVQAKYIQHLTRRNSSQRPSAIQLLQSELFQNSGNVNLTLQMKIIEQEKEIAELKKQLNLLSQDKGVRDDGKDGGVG

[36] = target: Rho-associated protein kinase 2 (Homo sapiens) (UniProt O75116)
[37] = target: Serine/threonine-protein kinase MARK1 (Homo sapiens) (UniProt Q9P0L2)
[38] = target: Tyrosine-protein kinase Mer (Homo sapiens) (UniProt Q12866)
[39] = target: Tyrosine-protein kinase ZAP-70 (Homo sapiens) (UniProt P43403)
[40] = test system: Receptor-type tyrosine-protein kinase FLT3 (Homo sapiens), P36888 [UNDEFINED MUTATION]
[41] = target: Dual specificity mitogen-activated protein kinase kinase 5 (Homo sapiens) (UniProt Q13163)
Dual specificity mitogen-activated protein kinase kinase 5 (Homo sapiens), sequence (Q13163 whole entry): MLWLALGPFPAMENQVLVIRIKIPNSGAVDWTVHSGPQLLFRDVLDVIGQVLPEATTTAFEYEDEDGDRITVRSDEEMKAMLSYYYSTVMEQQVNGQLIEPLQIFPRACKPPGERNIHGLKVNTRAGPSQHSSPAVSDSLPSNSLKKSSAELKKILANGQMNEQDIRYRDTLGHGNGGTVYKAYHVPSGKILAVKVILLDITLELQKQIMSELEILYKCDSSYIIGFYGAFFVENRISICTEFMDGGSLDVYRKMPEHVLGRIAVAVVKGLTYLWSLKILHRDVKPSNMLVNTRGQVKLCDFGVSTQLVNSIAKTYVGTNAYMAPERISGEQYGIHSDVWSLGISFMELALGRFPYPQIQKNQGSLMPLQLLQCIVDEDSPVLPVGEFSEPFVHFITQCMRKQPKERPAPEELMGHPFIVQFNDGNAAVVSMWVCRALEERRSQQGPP

[42] = target: Mitogen-activated protein kinase kinase kinase kinase 5 (Homo sapiens) (UniProt Q9Y4K4)
[43] = target: Tyrosine-protein kinase receptor TYRO3 (Homo sapiens) (UniProt Q06418)
[44] = target: Tyrosine-protein kinase ABL2 (Homo sapiens) (UniProt P42684)
[45] = target: Ephrin type-A receptor 6 (Homo sapiens) (UniProt Q9UF33)

Measured: residual activity

Fibroblast growth factor receptor 2 (Homo sapiens), sequence (P21802 22-821 limits assumed): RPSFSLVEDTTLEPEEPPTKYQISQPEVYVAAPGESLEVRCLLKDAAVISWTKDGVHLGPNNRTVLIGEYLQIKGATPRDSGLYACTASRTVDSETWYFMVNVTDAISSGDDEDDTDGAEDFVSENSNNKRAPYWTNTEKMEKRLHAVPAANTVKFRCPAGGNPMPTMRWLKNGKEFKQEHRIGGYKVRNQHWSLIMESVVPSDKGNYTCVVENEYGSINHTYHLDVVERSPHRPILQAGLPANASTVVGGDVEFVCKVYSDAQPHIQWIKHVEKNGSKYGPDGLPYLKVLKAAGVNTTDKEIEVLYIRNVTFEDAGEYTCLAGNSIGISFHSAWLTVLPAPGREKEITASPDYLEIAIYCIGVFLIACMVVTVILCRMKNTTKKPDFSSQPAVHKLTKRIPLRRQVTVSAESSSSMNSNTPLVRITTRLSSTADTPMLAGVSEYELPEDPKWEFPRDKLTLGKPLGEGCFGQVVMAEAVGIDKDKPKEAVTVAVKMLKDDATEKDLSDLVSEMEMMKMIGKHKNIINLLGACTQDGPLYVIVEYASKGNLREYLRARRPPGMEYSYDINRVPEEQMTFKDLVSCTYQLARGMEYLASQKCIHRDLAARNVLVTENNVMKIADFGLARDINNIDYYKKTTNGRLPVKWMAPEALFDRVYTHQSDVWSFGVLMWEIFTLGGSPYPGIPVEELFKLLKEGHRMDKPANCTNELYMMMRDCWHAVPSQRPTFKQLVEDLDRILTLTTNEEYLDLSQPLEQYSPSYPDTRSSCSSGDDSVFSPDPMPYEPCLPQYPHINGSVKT

N#CC1(c2ccccn2)CCN(Cc2cc(C(=O)N3CCCC3)c(=O)n3ccccc23)CC1
inactive: [1] 100% | [2] 91% | [3] 91% | [4] 100% | [5] 100% | [6] 100% | [7] 88% | [8] 87% | [9] 79% | [10] 90% | [11] 80% | [12] 100% | [13] 95% | [14] 77% | [15] 79% | [16] 100% | [17] 89% | [18] 72% | [19] 100% | [20] 93% | [21] 100% | [22] 100% | [23] 88% | [24] 91% | [25] 100% | [26] 98% | [27] 98% | [28] 97% | [29] 94% | [30] 74% | [31] 100% | [32] 88% | [33] 95% | [34] 89% | [35] 83% | [36] 72% | [37] 100% | [38] 86% | [39] 100% | [40] 90% | [41] 100% | [42] 75% | [43] 78% | [44] 100% | [45] 100%

N#CC1(c2ccccn2)CCN(Cc2cc(C(=O)O)c(=O)n3ccccc23)CC1 [MSD-M1PAM]
inactive: [1] 85% | [2] 100% | [3] 100% | [4] 95% | [5] 92% | [6] 81% | [7] 98% | [8] 100% | [9] 100% | [10] 100% | [11] 100% | [12] 57% | [13] 100% | [14] 100% | [15] 100% | [16] 74% | [17] 70% | [18] 91% | [19] 100% | [20] 97% | [21] 100% | [22] 70% | [23] 94% | [24] 97% | [25] 66% | [26] 74% | [27] 90% | [28] 83% | [29] 99% | [30] 97% | [31] 97% | [32] 89% | [33] 67% | [34] 100% | [35] 86% | [36] 85% | [37] 94% | [38] 100% | [39] 100% | [40] 94% | [41] 62% | [42] 87% | [43] 98% | [44] 100% | [45] 86%

Reference: ChEMBL document CHEMBL4507295 (2021)
